What all share (assay): DTP human tumour cell line panel, 48 h
Assay [1] relates to OVCAR-4.
The subject of assay [2] is SNB-75.
Assay [3] deals with SN12C.
Assay [4] has as its system BT-549.
The subject of assay [5] is HCT-15.
Assay [6] deals with U-251.
The subject of assay [7] is Hs-578T.
The subject of assay [8] is OVCAR-8.
Assay [9] relates to A498.
In assay [10] the test system is NCI-H522.
Assay [11] relates to RXF 393.
For assay [12], the system named is EKVX.
Assay [13] concerns HT-29.
For assay [14], the system named is SK-MEL-28.
Assay [15] concerns LOX IMVI.
Assay [16] deals with PC-3.
Assay [17] deals with COLO 205.
Assay [18] concerns SK-OV-3.
Assay [19] has as its system Malme-3M.
The test system of assay [20] is NCI/ADR-RES.

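Cultured in 96-well plates, cells were exposed to test compound for 48 hours across five concentrations. Here, GI50 denotes the concentration required for 50% inhibition of growth.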 Calls of active or inactive are those of the source. Rule as the data show it: active = GI50 up to about 1.1 µM and inactive = higher. A value given as a limit tells only on which side of the number the result lay.

Results on seven compounds are retold here after ChEMBL document CHEMBL1201862, “PubChem BioAssay data set” (2004).

For the compound `COCC(=O)OC1CCn2c1nc1c2C(=O)C(C)=C(NC(C)=O)C1=O` (stereo not given), the GI50 in assay [1] is 1.85 µM (inactive); in [2], 5.42 µM (inactive); in assay [3], 7.26 µM (inactive); in assay [4] it was 11.7 µM (inactive); in assay [5], 14.4 µM; in [6], 6.05 µM (inactive). Moreover, the GI50 in [7] was 4.06 µM (inactive); in assay [8] it was 3.48 µM (inactive); in [9], 27.9 µM (inactive); in assay [10], 4.57 µM (inactive); in [11] it was 3.41 µM (inactive); in assay [12], 7.6 µM (inactive). Further, the GI50 was 9.93 µM (inactive) in assay [13]; 15.1 µM (inactive) in [14]; 4.34 µM (inactive) in assay [15]; 2.27 µM (inactive) in assay [16]; 15.5 µM (inactive) in assay [17]; 15.4 µM (inactive) in assay [18]. Besides, the results for the GI50 in assay [19] and in [20] were 2.77 µM (inactive) and 4.49 µM (inactive), respectively.

For the compound `c1ccc(NN=C(c2ccccn2)c2ccccn2)nc1`, the GI50 was 0.213 µM (active) in assay [1]; 2.56 µM (inactive) in assay [2]; 0.142 µM (active) in assay [3]; 6.18 µM (inactive) in assay [4]; 0.0893 µM in assay [5]; 0.318 µM (active) in [6]. For the same compound, the GI50 in assay [7] was 4.82 µM (inactive); in [8], 0.0384 µM (active); in assay [9], 0.447 µM (active); in assay [10], < 0.01 µM (active); in assay [11], 0.583 µM (active); in [12], 0.335 µM (active). Moreover, the GI50 was < 0.01 µM (active) in [13]; 0.869 µM (active) in assay [14]; 0.269 µM (active) in [15]; 0.191 µM (active) in assay [16]; < 0.01 µM (active) in [17]; 0.369 µM (active) in [18]. For the same compound, the GI50 in [19] is 0.0653 µM (active); in assay [20], 0.157 µM (active).

`CC(C)(C(=O)N(C(=O)N1CCN(c2ccccc2)CC1)S(=O)(=O)c1ccccc1)c1ccc(Cl)cc1`: the GI50 in assay [1] is 28.1 µM (inactive); in [2], 77.1 µM (inactive); in assay [3], 52.4 µM (inactive); in [4] it was 30.7 µM (inactive); in assay [5], 7.94 µM; in [6] it was 6.32 µM (inactive). The GI50 is 39.1 µM (inactive) in assay [7]; 16.6 µM (inactive) in [8]; 18.6 µM (inactive) in assay [9]; 4.32 µM (inactive) in assay [10]; > 100 µM (inactive) in assay [11]; 13.5 µM (inactive) in [12]. The GI50 in assay [13] is 21.4 µM (inactive); in assay [14], > 100 µM (inactive); in assay [15] it was 46.8 µM (inactive); in [16], 12.6 µM (inactive); in assay [17] it was 20.7 µM (inactive); in assay [18] it was 24 µM (inactive). Also, the GI50 in assay [19] is 90.4 µM (inactive); in assay [20], 6.92 µM (inactive).

In the case of `Nc1onc2c1Cc1c(noc1N)-c1ccccc1-2`, the GI50 in [1] was > 100 µM (inactive); in assay [2], 33.2 µM (inactive); in [3] it was 85.3 µM (inactive); in assay [4], 17.5 µM (inactive); in assay [5], 43.8 µM; in [6], 57.5 µM (inactive). The GI50 in assay [7] was 26.9 µM (inactive); in assay [8] it was 59.6 µM (inactive); in assay [9] it was 26.7 µM (inactive); in assay [10], 27.4 µM (inactive); in assay [11] it was 58.1 µM (inactive); in [12] it was 16.3 µM (inactive). In addition, the GI50 in assay [13] was 80.4 µM (inactive); in [14], > 100 µM (inactive); in assay [15], 32.6 µM (inactive); in assay [16], 48.3 µM (inactive); in assay [17] it was 58.6 µM (inactive); in [18], 45.1 µM (inactive). Also, the GI50 in assay [19] is 41.9 µM (inactive); in assay [20], > 100 µM (inactive).

Consider `O=S(=O)(O)c1c(/N=N/c2c(O)ccc3ccccc23)ccc2ccccc12`, for which the GI50 was > 100 µM (inactive) in assay [1]; > 100 µM (inactive) in assay [2]; > 100 µM (inactive) in [3]; > 100 µM (inactive) in assay [4]; above 100 µM in assay [5]; > 100 µM (inactive) in assay [6]. Moreover, the GI50 in assay [7] is > 100 µM (inactive); in [8], > 100 µM (inactive); in assay [9], > 100 µM (inactive); in assay [10] it was 93.5 µM (inactive); in [11], > 100 µM (inactive); in assay [12], > 100 µM (inactive). Also, the GI50 in assay [13] was > 100 µM (inactive); in assay [14], > 100 µM (inactive); in [15], > 100 µM (inactive); in [16], > 100 µM (inactive); in assay [17], 70.1 µM (inactive); in assay [18], 79.8 µM (inactive). The GI50 in assay [19] was 55.1 µM (inactive); in assay [20], > 100 µM (inactive).

As for `COc1ccc2c(c1)-c1c(c3cc(OC)ccc3n1CCCN(C)C)CC2`, the GI50 is 11 µM (inactive) in [1]; 2.99 µM (inactive) in [2]; 12 µM (inactive) in assay [3]; 15.5 µM (inactive) in [4]; 11.4 µM in [5]; 8.67 µM (inactive) in [6]. Further, the GI50 in [7] was 4.29 µM (inactive); in assay [8] it was 13.7 µM (inactive); in assay [9], 13.4 µM (inactive); in assay [10] it was 9.91 µM (inactive); in assay [11], 6.93 µM (inactive); in assay [12] it was 13.2 µM (inactive). Also, the GI50 in assay [13] was 2.81 µM (inactive); in assay [14], 5.78 µM (inactive); in assay [15], 4.06 µM (inactive); in [16], 10.3 µM (inactive); in [17] it was 2.02 µM (inactive); in [18] it was 16.2 µM (inactive). For the same compound, the GI50 was 2.28 µM (inactive) in [19] and 12.7 µM (inactive) in assay [20].

`CCOC(=O)c1c(Br)c(-c2ccc(Br)cc2)c(Br)n1C`: the GI50 in [1] is 19.3 µM (inactive); in assay [2] it was 3.18 µM (inactive); in assay [3], 25.2 µM (inactive); in assay [4], 14.5 µM (inactive); in [5] it was 13 µM; in assay [6], 18 µM (inactive). In addition, the GI50 in assay [7] is 34.3 µM (inactive); in assay [8], 28.8 µM (inactive); in assay [9], 18.2 µM (inactive); in assay [10] it was 9.38 µM (inactive); in [11] it was 11.2 µM (inactive); in assay [12], 8.99 µM (inactive). In addition, the GI50 in assay [13] is 11.7 µM (inactive); in assay [14] it was 15.3 µM (inactive); in assay [15] it was 7.16 µM (inactive); in [16], 19.4 µM (inactive); in assay [17], 14.9 µM (inactive); in assay [18], 32.8 µM (inactive). Further, the GI50 in [19] is 18.5 µM (inactive); in [20], 5.38 µM (inactive).
